According to patent US6737383B1, “Herbicidal oxadiazolidines” (priority 1999, dated 2004):

Key:
[1] = tested on: morningglory; test: Test B pre/postemergence morningglory; type: in vivo, Ipomoea hederacea
Outline: (§1)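 Herbicidal effect was estimated by eye on a ten-point control scale after plants spent twelve to sixteen days in a greenhouse following soil or foliar treatment. Foliar sprays targeted plants at one to four leaves; all doses were formulated in a non-phytotoxic solvent with surfactant.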

[2] = tested on: giant foxtail; test: Test B pre/postemergence giant foxtail; type: in vivo, Setaria faberii
Outline: as §1

[3] = tested on: sugar beet; test: Test B pre/postemergence sugar beet; type: in vivo, Beta vulgaris
Outline: as §1

[4] = tested on: corn; test: Test B pre/postemergence corn; type: in vivo, Zea mays
Outline: as §1

[5] = tested on: pigweed; test: Test B pre/postemergence pigweed; type: in vivo, Amaranthus retroflexus
Outline: as §1

[6] = tested on: wheat; test: Test B pre/postemergence wheat; type: in vivo, Triticum aestivum
Outline: as §1

[7] = tested on: surinam grass; test: Test B pre/postemergence surinam grass; type: in vivo, Brachiaria decumbens
Outline: as §1

[8] = tested on: soybean; test: Test B pre/postemergence soybean; type: in vivo, Glycine max
Outline: as §1

[9] = tested on: blackgrass; test: Test B pre/postemergence blackgrass; type: in vivo, Alopecurus myosuroides
Outline: as §1

[10] = tested on: velvetleaf; test: Test B pre/postemergence velvetleaf; type: in vivo, Abutilon theophrasti
Outline: as §1

[11] = tested on: bedstraw; test: Test B pre/postemergence bedstraw; type: in vivo, Galium aparine
Outline: as §1

[12] = tested on: purple nutsedge; test: Test B pre/postemergence purple nutsedge; type: in vivo, Cyperus rotundus
Outline: as §1

[13] = tested on: cocklebur; test: Test B pre/postemergence cocklebur; type: in vivo, Xanthium strumarium
Outline: as §1

[14] = tested on: wild oat; test: Test B pre/postemergence wild oat; type: in vivo, Avena fatua
Outline: as §1

[15] = tested on: rape; test: Test B pre/postemergence rape; type: in vivo, Brassica napus
Outline: as §1

[16] = tested on: crabgrass; test: Test B pre/postemergence crabgrass; type: in vivo, Digitaria sanguinalis
Outline: as §1

[17] = Postemergence, Rate 125 g/ha, scale of 0 to 10 where 0 is no effect and 10 is complete control
[18] = Postemergence, Rate 500 g/ha, scale 0 (no effect) to 10 (complete control)
[19] = Postemergence, Rate 1000 g/ha, scale 0 to 10 (0 no effect, 10 complete control)
[20] = Rate 125 g/ha, Preemergence, scale 0 to 10 (0 no effect, 10 complete control)
[21] = Rate 250 g/ha, Postemergence, scale 0 to 10, 0 is no effect, 10 is complete control
[22] = Rate 500 g/ha, Preemergence, scale 0 to 10 (0 no effect, 10 complete control)
[23] = Rate 1000 g/ha, Preemergence, scale 0 to 10 (0 no effect, 10 complete control)
[24] = Preemergence, Rate 250 g/ha, scale 0 (no effect) to 10 (complete control)
[25] = Preemergence, Rate 62 g/ha, scale of 0 to 10 where 0 is no effect and 10 is complete control
[26] = Preemergence, Rate 125 g/ha, scale of 0 to 10 where 0 is no effect and 10 is complete control
[27] = Preemergence, Rate 250 g/ha, scale 0 to 10 (0 no effect, 10 complete control)
[28] = Preemergence, Rate 500 g/ha, scale of 0 to 10 where 0 is no effect and 10 is complete control

## COP(=O)(CCn1c(=O)on(C(=O)N(c2ccc(F)cc2F)C(C)C)c1=O)OC [Compound 777]
[1]; [17]
  Morningglory plant response rating: 8
[1]; [18]
  Morningglory plant response rating: 8
[1]; [19]
  Morningglory plant response rating: 8
[1]; [20]
  Morningglory plant response rating: 1
[1]; [21]
  Morningglory plant response rating: 8
[1]; [22]
  Morningglory plant response rating: 5
[1]; [23]
  Plant response rating, Morningglory: 7
[2]; [17]
  Giant foxtail plant response rating: 8
[2]; [18]
  Giant foxtail plant response rating: 9
[2]; [19]
  Giant foxtail plant response rating: 9
[2]; [24]
  Giant foxtail plant response rating: 10
[2]; [20]
  Giant foxtail plant response rating: 10
[2]; [21]
  Giant foxtail plant response rating: 8
[2]; [22]
  Giant foxtail plant response rating: 10
[2]; [23]
  Plant response rating, Giant foxtail: 10
[3]; [18]
  Sugarbeets plant response rating: 5
[3]; [20]
  Sugarbeets plant response rating: 0
[3]; [21]
  Sugarbeets plant response rating: 3
[3]; [22]
  Sugarbeets plant response rating: 3
[3]; [23]
  Plant response rating, Sugarbeets: 3
[4]; [17]
  Corn plant response rating: 0
[4]; [18]
  Corn plant response rating: 0
[4]; [19]
  Corn plant response rating: 0
[4]; [24]
  Corn plant response rating: 0
[4]; [20]
  Corn plant response rating: 0
[4]; [21]
  Corn plant response rating: 0
[4]; [22]
  Corn plant response rating: 0
[4]; [23]
  Plant response rating, Corn: 0
[5]; [17]
  Redroot pigweed plant response rating: 2
[5]; [18]
  Redroot pigweed plant response rating: 4
[5]; [19]
  Redroot pigweed plant response rating: 8
[5]; [20]
  Redroot pigweed plant response rating: 2
[5]; [21]
  Redroot pigweed plant response rating: 4
[5]; [22]
  Redroot pigweed plant response rating: 2
[5]; [23]
  Plant response rating, Redroot pigweed: 9
[6]; [18]
  Wheat plant response rating: 3
[6]; [20]
  Wheat plant response rating: 0
[6]; [21]
  Wheat plant response rating: 2
[6]; [22]
  Wheat plant response rating: 9
[6]; [23]
  Plant response rating, Wheat: 9
[7]; [17]
  B. signalgrass plant response rating: 2
[7]; [19]
  B. signalgrass plant response rating: 8
[7]; [21]
  B. signalgrass plant response rating: 2
[7]; Rate 500 g/ha, Postemergence, scale 0 to 10, 0 is no effect, 10 is complete control
  B. signalgrass plant response rating: 3
[8]; [18]
  Soybean plant response rating: 6
[8]; [20]
  Soybean plant response rating: 0
[8]; [21]
  Soybean plant response rating: 3
[8]; [22]
  Soybean plant response rating: 0
[8]; [23]
  Plant response rating, Soybean: 0
[9]; [17]
  Blackgrass plant response rating: 0
[9]; [18]
  Blackgrass plant response rating: 4
[9]; [19]
  Blackgrass plant response rating: 4
[9]; [24]
  Blackgrass plant response rating: 10
[9]; [20]
  Blackgrass plant response rating: 2
[9]; [21]
  Blackgrass plant response rating: 2
[9]; [22]
  Blackgrass plant response rating: 10
[9]; [23]
  Plant response rating, Blackgrass: 10
[10]; [18]
  Velvetleaf plant response rating: 5
[10]; [20]
  Velvetleaf plant response rating: 0
[10]; [21]
  Velvetleaf plant response rating: 3
[10]; [22]
  Velvetleaf plant response rating: 0
[10]; [23]
  Plant response rating, Velvetleaf: 3
[11]; [17]
  Bedstraw plant response rating: 0
[11]; [18]
  Bedstraw plant response rating: 3
[11]; [19]
  Bedstraw plant response rating: 6
[11]; [20]
  Bedstraw plant response rating: 0
[11]; [21]
  Bedstraw plant response rating: 2
[11]; [22]
  Bedstraw plant response rating: 0
[11]; [23]
  Plant response rating, Bedstraw: 3
[12]; [18]
  Nutsedge plant response rating: 3
[12]; [19]
  Nutsedge plant response rating: 3
[12]; [20]
  Nutsedge plant response rating: 0
[12]; [21]
  Nutsedge plant response rating: 0
[12]; [23]
  Plant response rating, Nutsedge: 1
[13]; [17]
  Cocklebur plant response rating: 0
[13]; [18]
  Cocklebur plant response rating: 0
[13]; [19]
  Cocklebur plant response rating: 0
[13]; [24]
  Cocklebur plant response rating: 0
[13]; [20]
  Cocklebur plant response rating: 0
[13]; [21]
  Cocklebur plant response rating: 0
[13]; [22]
  Cocklebur plant response rating: 0
[14]; [18]
  Wild oats plant response rating: 3
[14]; [20]
  Wild oats plant response rating: 3
[14]; [21]
  Wild oats plant response rating: 2
[14]; [22]
  Wild oats plant response rating: 9
[14]; [23]
  Plant response rating, Wild oats: 9
[15]; [17]
  Rape plant response rating: 0
[15]; [18]
  Rape plant response rating: 0
[15]; [19]
  Rape plant response rating: 0
[15]; [20]
  Rape plant response rating: 0
[15]; [21]
  Rape plant response rating: 0
[15]; [22]
  Rape plant response rating: 2
[15]; [23]
  Plant response rating, Rape: 7
[16]; [17]
  Crabgrass plant response rating: 4
[16]; [18]
  Crabgrass plant response rating: 9
[16]; [24]
  Crabgrass plant response rating: 10
[16]; [20]
  Crabgrass plant response rating: 10
[16]; [21]
  Crabgrass plant response rating: 7
[16]; [22]
  Crabgrass plant response rating: 10
[16]; [23]
  Plant response rating, Crabgrass: 10

## CC(C)N(C(=O)n1oc(=O)n(C(C)C(=S)N(C)C)c1=O)c1ccc(F)cc1 (stereo not shown) [Compound 728]
[1]; [25]
  Morningglory plant response rating: 0
[1]; [26]
  Plant response rating, Morningglory: 0
[1]; [24]
  Morningglory plant response rating: 2
[1]; [22]
  Morningglory plant response rating: 2
[2]; [25]
  Giant foxtail plant response rating: 4
[2]; [26]
  Plant response rating, Giant foxtail: 7
[2]; [24]
  Giant foxtail plant response rating: 8
[2]; [22]
  Giant foxtail plant response rating: 8
[3]; [25]
  Sugarbeets plant response rating: 0
[3]; [26]
  Plant response rating, Sugarbeets: 0
[3]; [24]
  Sugarbeets plant response rating: 4
[3]; [22]
  Sugarbeets plant response rating: 4
[4]; [25]
  Corn plant response rating: 0
[4]; [26]
  Plant response rating, Corn: 0
[4]; [24]
  Corn plant response rating: 0
[4]; [22]
  Corn plant response rating: 0
[5]; [25]
  Redroot pigweed plant response rating: 0
[5]; [26]
  Plant response rating, Redroot pigweed: 7
[5]; [24]
  Redroot pigweed plant response rating: 8
[5]; [22]
  Redroot pigweed plant response rating: 9
[6]; [25]
  Wheat plant response rating: 0
[6]; [26]
  Plant response rating, Wheat: 0
[6]; [24]
  Wheat plant response rating: 5
[6]; [22]
  Wheat plant response rating: 7
[7]; [25]
  B. signalgrass plant response rating: 5
[7]; [26]
  Plant response rating, B. signalgrass: 8
[7]; [24]
  B. signalgrass plant response rating: 8
[7]; [22]
  B. signalgrass plant response rating: 9
[8]; [25]
  Soybean plant response rating: 0
[8]; [26]
  Plant response rating, Soybean: 0
[8]; [24]
  Soybean plant response rating: 0
[8]; [22]
  Soybean plant response rating: 0
[9]; [25]
  Blackgrass plant response rating: 0
[9]; [26]
  Plant response rating, Blackgrass: 9
[9]; [24]
  Blackgrass plant response rating: 9
[9]; [22]
  Blackgrass plant response rating: 10
[10]; [25]
  Velvetleaf plant response rating: 0
[10]; [26]
  Plant response rating, Velvetleaf: 0
[10]; [24]
  Velvetleaf plant response rating: 0
[10]; [22]
  Velvetleaf plant response rating: 0
[11]; [25]
  Bedstraw plant response rating: 0
[11]; [26]
  Plant response rating, Bedstraw: 0
[11]; [24]
  Bedstraw plant response rating: 0
[11]; [22]
  Bedstraw plant response rating: 2
[12]; [25]
  Nutsedge plant response rating: 0
[12]; [26]
  Plant response rating, Nutsedge: 0
[13]; [25]
  Cocklebur plant response rating: 0
[13]; [26]
  Plant response rating, Cocklebur: 0
[13]; [24]
  Cocklebur plant response rating: 0
[13]; [22]
  Cocklebur plant response rating: 0
[14]; [25]
  Wild oats plant response rating: 0
[14]; [26]
  Plant response rating, Wild oats: 4
[14]; [24]
  Wild oats plant response rating: 10
[14]; [22]
  Wild oats plant response rating: 10
[15]; [25]
  Rape plant response rating: 0
[15]; [26]
  Plant response rating, Rape: 3
[15]; [24]
  Rape plant response rating: 6
[15]; [22]
  Rape plant response rating: 8
[16]; [25]
  Crabgrass plant response rating: 6
[16]; [26]
  Plant response rating, Crabgrass: 6
[16]; [22]
  Crabgrass plant response rating: 7

## CCn1ncc(Cn2c(=O)on(C(=O)N(c3ccc(F)cc3)C(C)C)c2=O)c1Cl [Compound 686]
[1]; [25]
  Morningglory plant response rating: 0
[1]; [26]
  Plant response rating, Morningglory: 0
[2]; [25]
  Giant foxtail plant response rating: 9
[2]; [26]
  Plant response rating, Giant foxtail: 9
[3]; [25]
  Sugarbeets plant response rating: 0
[3]; [26]
  Plant response rating, Sugarbeets: 0
[4]; [25]
  Corn plant response rating: 0
[4]; [26]
  Plant response rating, Corn: 0
[4]; [27]
  Plant response rating, Corn: 0
[5]; [25]
  Redroot pigweed plant response rating: 0
[5]; [26]
  Plant response rating, Redroot pigweed: 6
[6]; [25]
  Wheat plant response rating: 0
[6]; [26]
  Plant response rating, Wheat: 0
[7]; [25]
  B. signalgrass plant response rating: 2
[7]; [26]
  Plant response rating, B. signalgrass: 5
[7]; [27]
  Plant response rating, B. signalgrass: 7
[7]; [28]
  Plant response rating, B. signalgrass: 9
[8]; [25]
  Soybean plant response rating: 0
[8]; [26]
  Plant response rating, Soybean: 0
[9]; [25]
  Blackgrass plant response rating: 4
[9]; [26]
  Plant response rating, Blackgrass: 7
[9]; [27]
  Plant response rating, Blackgrass: 8
[9]; [28]
  Plant response rating, Blackgrass: 9
[10]; [25]
  Velvetleaf plant response rating: 0
[10]; [26]
  Plant response rating, Velvetleaf: 0
[11]; [25]
  Bedstraw plant response rating: 0
[11]; [26]
  Plant response rating, Bedstraw: 0
[11]; [27]
  Plant response rating, Bedstraw: 0
[11]; [28]
  Plant response rating, Bedstraw: 0
[12]; [25]
  Nutsedge plant response rating: 0
[12]; [26]
  Plant response rating, Nutsedge: 0
[13]; [25]
  Cocklebur plant response rating: 0
[13]; [27]
  Plant response rating, Cocklebur: 0
[13]; [28]
  Plant response rating, Cocklebur: 0
[14]; [25]
  Wild oats plant response rating: 0
[14]; [26]
  Plant response rating, Wild oats: 1
[15]; [25]
  Rape plant response rating: 0
[15]; [26]
  Plant response rating, Rape: 0
[16]; [25]
  Crabgrass plant response rating: 8
[16]; [26]
  Plant response rating, Crabgrass: 9
[16]; [27]
  Plant response rating, Crabgrass: 10
